In one test the target is T1, β1-adrenoceptor (Rattus norvegicus, UniProt P18090).
T1 construct: Left atria were dissected from the hearts and mounted in a 10 ml organ bath; from tissue; host or cells: rat left atria, electrically driven
Put plainly: isoprenaline-induced positive inotropic effects in electrically stimulated rat left atria (pA2). Also noted: species or system Wistar rat. The conditions noted are these: Schild plot, mean ± SEM of eight, listed as KMST. The method, then:
Rats of either sex weighing 350-500 g were sacrificed after mild anesthesia with ether, and their hearts were quickly excised. Left atria were dissected from the hearts and mounted in a 10 ml organ bath with one end fixed and the other end connected to a force displacement transducer (Grass, Model FT03). […] Atria were pre-stretched to a baseline tension of 0.5 g and equilibrated for 60 min in an aerated Krebs solution before starting experimental protocols. Atria were driven at 2-s intervals via two platinum electrodes on each side. An incubation time of 30 min was allowed for the test compound.

For the next test, the target named is T2, 5-HT1B (Rattus norvegicus, UniProt P28564).
T2 construct: from tissue; host or cells: Wistar rat cortex membranes
Put plainly: [3H]GR125743 receptor binding in rat cortex. Also noted: species or system Wistar rat. The settings on record: [3H]GR125743 (5-HT1B/1D), rat cortex; read-out: Ki 5-HT1B. The method, then: The homogenate was pressure filtered through muslin. Filtrate was centrifuged at 1000 g for 10 min. […] Protein content was determined by Bradford's method.

The subject of test [1] is lipid peroxidation in rat brain homogenate. Put plainly: lipid peroxidation initiated by Fe2+-ascorbic acid in rat brain homogenates (TBARS). It is filed as biochemical. The method, then:
Rat brain homogenate was made in 0.9% saline containing 10 mg tissue/ml. The rates of membrane lipid peroxidation were measured by the formation of thiobarbituric acid (TBA)-reactive substance (TBARS). Rat brain homogenates (1 ml) were incubated at 37° C. for 5 min with 10 μl of test compound or vehicle. […] After 30 min of incubation, the reaction was stopped by adding 0.1 ml of 0.2% BHT. TBA reagent was then added and the mixture was heated for 30 min in a boiling water bath. […] The amount of TBARS was quantified using the linear regression obtained from malondialdehyde (MDA) standards.

In test [2] the test system is serotonin-induced human platelet aggregation. Kind of test: serotonin-induced human platelet aggregation. Format: cell-based. The conditions noted are these: serotonin 5 μM, PRP; read-out: IC50 serotonin-induced human platelet aggregation. The method, then:
Venous blood from human volunteer donors was collected in 10 ml Monovette containing 1 ml citrate solution (0.106M trisodium citrate; Sarstedt, Nümbrecht, Germany) and centrifuged (400 g, 10 min, 20° C.). […] After centrifugation (10 min, 2000 g, 20° C.), the platelet pellet was resuspended in wishing buffer (113 mM NaCl, 4 mM Na2HPO4, 24 mM NaH2PO4, 4 mM KCl, 0.2 mM EGTA(Ethylene glycol-bis-(2-aminoethyl ether) N,N,N′-tetraacetic acid), 0.1% (wt/vol) glucose, pH 6.0) and recentrifuged (10 min, 2000 g, 20° C.). The washed platelets were resuspended in incubation buffer (134 mM NaCl, 12 mM NaHCO3, 2.9 mM KCl, 0.34 mM NaH2PO4, 5 mM HEPES (N-(2-hydroxyethyl) piperazine-N′-(2-ethanesulfonic acid)), 5 mM glucose, pH7.4), cells were counted in a Sysmex hematology analyzer (Sysmex, CDA-500, Japan) and adjusted to a final concentration of 2×10^8 platelets/ml.
The aggregation of the platelets in platelet-rich plasma (PRP) was measured as a change in light absorbance by a Payton dual-channel aggregometer (NBS, Hema tracer, Japan). PRP (240 μL) was stirred (700 rpm) at 37° C. for 1 min, and 5 μL epinephrine (final concentration 5 μM), serotonin (final concentration 5 μM) was added. After which the rate of primary aggregation (1/min) and maximum aggregation (%) at 5 min were recorded. To study the effects of compounds on epinephrine or serotonin-induced aggregation, PRP was incubated with 5 μL of compounds at various concentrations for 1 min before epinephrine or serotonin was added. IC50 values given were calculated from the secondary aggregation data.

In another test the test system is anesthetized rats. Put plainly: intra-cisternal injection and NTS microinjection, BP and HR. Format: in vivo, rat. The method, then:
Intra-cisternal injections of KMST (0.3, 0.03 μmol), yohimbine [0.03 μmol), and clonidine (38 pmol), were performed in rats as described by Duan et al (1987). Briefly, rats weighing 250-300 g were anaesthetized with pentobarbital sodium (50 mg kg^−1, i.p.) and mounted in a David-Kopf stereotaxic instrument (Yeh J L. et al., Brain. Res. Bull., 30:641-648, 1993). The calvarium was exposed and a 1 mm diameter trephine hole was drilled 1.8 mm lateral to the coronary and 1.5 mm posterior to the sagittal sutures. A cannula (0.7 mm O.D.) connected to a Hamilton syringe (RN-705, 5051) by PE-50 was advanced 4.7 mm into the brain using the electrode carrier.
Rats were anesthetized and placed in a David-Kopf stereotaxic instrument. The cerebellum was exposed after removing the skin and occipital bone. The NTS coordinates were (reference to lambda) P 5-6 mm, L/R 0.5-1 mm, depth 6-7.5 mm (Wu et al., 1994). NTS injection sites were confirmed by decreasing BP and HR following micro-injection of 1% L-glutamate. […] Pre-treatment with clonidine was performed 15 min before administration of test agents. At the end of experiments, the animals were sacrificed. The brain was removed and sectioned for histological confirmation of the drug application site.

In the next test the test system is rats. Put plainly: LPS-induced mortality. The conditions noted are these: rat, in vivo.
Another test has as its target T3, 5-HT1A (Rattus norvegicus, UniProt P19327).
T3 sequence (P19327 1-422): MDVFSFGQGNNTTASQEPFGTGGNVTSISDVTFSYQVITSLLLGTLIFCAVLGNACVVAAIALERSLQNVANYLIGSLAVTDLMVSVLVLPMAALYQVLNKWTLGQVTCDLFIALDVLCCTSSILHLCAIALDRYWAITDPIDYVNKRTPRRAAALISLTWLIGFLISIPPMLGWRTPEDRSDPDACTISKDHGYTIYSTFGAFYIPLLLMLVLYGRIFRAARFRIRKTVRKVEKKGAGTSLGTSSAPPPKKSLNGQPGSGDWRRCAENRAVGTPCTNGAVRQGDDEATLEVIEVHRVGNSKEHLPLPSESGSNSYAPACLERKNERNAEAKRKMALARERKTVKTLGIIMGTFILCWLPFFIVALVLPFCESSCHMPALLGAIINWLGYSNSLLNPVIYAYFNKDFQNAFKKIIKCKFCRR
Kind of test: [3H]WAY100635 receptor binding. The conditions noted are these: read-out: Ki 5-HT1A; [3H]WAY100635.

“And” between values parts separate entries of the source, which are not always exact repeats. Equal values may be shown once.

T1 sequence (P18090 whole entry): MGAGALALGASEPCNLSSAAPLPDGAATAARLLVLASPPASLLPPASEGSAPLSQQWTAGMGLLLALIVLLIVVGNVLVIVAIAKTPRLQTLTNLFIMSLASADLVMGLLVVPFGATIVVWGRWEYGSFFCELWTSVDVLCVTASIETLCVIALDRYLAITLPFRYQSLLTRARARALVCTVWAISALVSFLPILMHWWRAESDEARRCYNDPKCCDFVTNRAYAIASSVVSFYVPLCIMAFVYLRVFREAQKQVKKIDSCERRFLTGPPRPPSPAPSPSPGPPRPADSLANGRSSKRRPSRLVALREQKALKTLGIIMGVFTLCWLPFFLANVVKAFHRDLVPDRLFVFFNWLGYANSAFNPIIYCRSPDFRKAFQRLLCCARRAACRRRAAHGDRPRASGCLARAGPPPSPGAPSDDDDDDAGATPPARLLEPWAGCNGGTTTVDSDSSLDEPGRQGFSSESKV
T2 sequence (P28564 whole entry): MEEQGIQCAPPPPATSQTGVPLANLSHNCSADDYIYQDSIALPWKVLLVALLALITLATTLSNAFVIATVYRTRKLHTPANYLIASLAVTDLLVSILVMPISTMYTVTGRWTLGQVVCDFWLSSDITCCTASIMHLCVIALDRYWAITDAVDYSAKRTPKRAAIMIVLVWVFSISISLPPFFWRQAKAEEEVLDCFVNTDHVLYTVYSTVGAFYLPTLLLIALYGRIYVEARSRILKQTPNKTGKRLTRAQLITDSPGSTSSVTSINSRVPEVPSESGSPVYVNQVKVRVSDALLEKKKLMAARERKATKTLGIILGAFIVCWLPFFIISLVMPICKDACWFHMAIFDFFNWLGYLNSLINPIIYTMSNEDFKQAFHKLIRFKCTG

In general, Ki refers to the equilibrium dissociation constant of an inhibitor or competing ligand from its target. Broadly, the IC50 is the point on the concentration scale where inhibition reaches its midpoint. For the molecule `CC=Cc1ccc(OCC(O)CN2CCN(c3cccc(Cl)c3)CC2)c(OC)c1` (centres unmarked) [Compound 1], the “β1 pA2 value” on β1-adrenoceptor is 6.66±0.17 and 6.66. Further, the Ki at 5-HT1B worked out at 670 nM. In addition, in test [1] (rat brain homogenate), the “potency of KMST relative to ascorbic acid, lipid peroxidation” value is recorded as around 3 times; the “potency of KMST relative to trazodone, lipid peroxidation” value is listed as around 30 times; the “potency of KMST relative to yohimbine, lipid peroxidation” value is recorded as “approximately 5 times”. Besides, the IC50 in test [1] (rat brain homogenates, listed as KMST, read-out: IC50 inhibiting lipid peroxidation initiated by Fe2+-ascorbic acid) worked out at 2680 nM. The IC50 in test [2] was 3.63 nM. Besides, the “BP and HR after intra-cisternal injection and NTS microinjection” value in the test with anesthetized rats (central administration) was “increased BP and HR”. In addition, the “clonidine-induced hypotension and bradycardia” value in the test on anesthetized rats (high dose (0.3 μmol)) was “reduced both”. In addition, in the test on anesthetized rats (low dose (0.03 μmol)), the clonidine-induced bradycardia result is reported as “did not inhibit” and the clonidine-induced hypotension result was “reduced”. Moreover, in the test with rats, the LPS-induced death result is “did not prevent” and the “survival time after LPS” value is “did prolong survival time”. The Ki on 5-HT1A was above 10000 nM.

Source of the values: patent US6887878B2, “KMST isoeugenol derivatives and pharmaceutical activity” (Ing-Jun Chen, priority 2003, dated 2005).
